Patent publication US20100278934A1, “METHODS AND COMPOSITIONS FOR CONSERVING AND/OR PREPARING AN ORGAN OR TISSUE FOR TRANSPLANT” (Regenerx Biopharmaceuticals Inc., priority 2006, published 2010)

What was measured:
[1] = test system: Human hepatic stellate cells HSC; test: RT-PCR analysis of mRNA expression in human hepatic stellate cells cultured with Tβ4; assay type: cell-based
Description: Human hepatic stellate cells HSC were obtained from a liver cell mixture purchased from ADMET technologies after separation on an OptiPrep® Density Gradient Medium (Sigma). They were cultured until confluent and then plated at a density of 250,000 cells/60-mm dish and cultured in MEM supplemented with 10% bovine fetal serum, 1% non-essential amino acids and antibiotics. The cells were maintained in culture for approximately 48 hours and when semi-confluent they were serum-starved overnight using MEM supplemented with 1% albumin, antibiotics and 1% non-essential amino acids. RNA was extracted with Trizol (Invitrogen) and RT-PCR performed using primers. The expression of GAPDH was used as a control. All the experiments were performed in duplicate.
In many instances, the increase was dose dependent. […] The expression of another marker of HSC differentiation, namely PDGF-β receptor, was inhibited in a dose-dependent manner (75% with 1 μg/ml of Tβ4).

[2] = test system: Co-cultures of rat HSC and Human hepatocytes; test: Co-cultures of rat HSC and human hepatocytes with Tβ4, hepatocyte count after one week; assay type: cell-based; settings: greater than 100 ng/ml of Tβ4; one week in culture
Description: Hepatocyte Growth Factor (HGF) is a trophic factor for hepatocytes. […] Co-cultures of rat HSC and Human hepatocytes are prepared. Controls are incubated with the regular hormonally-defined medium used for hepatocytes. Experimental cultures receive greater than 100 ng/ml of Tβ4 in the same culture medium. Cells are harvested after one week using collagenase and trypsin. The hepatocytes are separated from the HSC by low speed centrifugation and the cells counted and used for total RNA extraction. […] The purity of the cell fractions are determined after staining with anti-human albumin antibodies (rat HSC are negative). RNA is used for RT-PCR and the expression of liver specific genes analyzed using human primers. Rat primers are used to determine the degree of contamination of rat HSC.

[3] = HSC cultured for 24 hours with different concentrations of Tβ4, RT-PCR, GAPDH control
[4] = HSC cultured for 24 hours, RT-PCR

Substance: thymosin beta 4 [Tβ4]
- inhibition of expression of PDGF-β receptor ([1]; 1 μg/ml of Tβ4, HSC cultured for 24 hours, dose-dependent): 75%
- increase in expression of HGF mRNA ([1]; 1 mg/ml of Tβ4, HSC cultured for 24 hours): 4 fold
- increase in expression of GSK 3β mRNA [1, 3]: 2.5 fold
- increase in expression of α-SMA mRNA [1, 3]: 4 fold
- increase in expression of β-catenin mRNA [1, 3]: 3 fold
- Tβ4 concentration giving maximal expression of α-SMA [1, 4]: 1 µg/mL
- Tβ4 concentration giving maximal increase in β-catenin mRNA [1, 4]: 1 ng/mL
- hepatocyte proliferation / number [2]: proliferate and increase in number
